Data: ChEMBL document CHEMBL5696442, “Discovery of type II inhibitors of TGFβ-activated kinase 1 (TAK1) and mitogen-activated protein kinase kinase kinase kinase 2 (MAP4K2)” (J Med Chem, 2015)
Activity calls are given as the source filed them. No cut-off for these calls is given here.

What was measured:
[1] = target: 1-phosphatidylinositol 3-phosphate 5-kinase (Homo sapiens) (UniProt Q9Y2I7); test: Inhibition of PIP5K3 ATP labeling site in human Huh-7 cell lysate at 1 uM by KiNativ Profiling analysis relative to control; assay type: subcellular
[2] = Inhibition of CASK Lys1 labeling site in human Huh-7 cells at 1 uM by KiNativ Profiling analysis relative to control
[3] = target: T1, Serine/threonine-protein kinase D3 (Homo sapiens) (UniProt O94806); test: Inhibition of PKD3 Lys2 labeling site in human A-375 cells at 5 uM by KiNativ Profiling analysis relative to control; assay type: cell-based
T1 sequence (whole entry): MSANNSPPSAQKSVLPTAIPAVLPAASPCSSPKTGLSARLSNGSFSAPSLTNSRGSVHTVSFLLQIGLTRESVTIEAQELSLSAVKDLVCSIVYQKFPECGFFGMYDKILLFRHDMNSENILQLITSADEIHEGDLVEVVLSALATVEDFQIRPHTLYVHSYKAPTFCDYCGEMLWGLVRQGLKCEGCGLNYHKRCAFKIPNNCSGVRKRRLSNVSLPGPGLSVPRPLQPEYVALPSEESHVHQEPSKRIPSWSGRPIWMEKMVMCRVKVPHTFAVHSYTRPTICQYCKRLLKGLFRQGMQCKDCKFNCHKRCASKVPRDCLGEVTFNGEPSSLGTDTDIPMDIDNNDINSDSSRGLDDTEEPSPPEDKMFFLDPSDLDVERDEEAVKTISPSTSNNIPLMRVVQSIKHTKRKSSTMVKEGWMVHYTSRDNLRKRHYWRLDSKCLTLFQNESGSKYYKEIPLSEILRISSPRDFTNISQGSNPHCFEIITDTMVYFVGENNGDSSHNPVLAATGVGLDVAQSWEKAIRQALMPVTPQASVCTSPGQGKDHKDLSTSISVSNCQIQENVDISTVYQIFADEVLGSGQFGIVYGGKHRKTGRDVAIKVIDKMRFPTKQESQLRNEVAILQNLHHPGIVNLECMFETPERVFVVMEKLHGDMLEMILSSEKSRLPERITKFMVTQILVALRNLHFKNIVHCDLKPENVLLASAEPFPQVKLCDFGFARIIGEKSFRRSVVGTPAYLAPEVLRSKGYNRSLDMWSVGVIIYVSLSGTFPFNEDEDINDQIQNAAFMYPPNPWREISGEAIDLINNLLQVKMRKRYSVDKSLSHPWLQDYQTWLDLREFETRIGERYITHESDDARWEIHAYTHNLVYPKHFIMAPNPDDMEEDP

[4] = target: Tyrosine-protein kinase JAK1 (Homo sapiens) (UniProt P23458); test: Inhibition of JAK1 in human A-375 cells at 0.05 uM by KiNativ Profiling analysis relative to control; assay type: cell-based
[5] = test system: Tyrosine-protein kinase ABL1 (Homo sapiens), P00519 [H396P]; test: Inhibition of ABL1 H396P mutant (unknown origin) at 10 uM by Ambit Kinomescan binding assay relative to control
[6] = target: Tyrosine-protein kinase JAK2 (Homo sapiens) (UniProt O60674); test: Inhibition of JAK2 JH1 catalytic domain (unknown origin) at 10 uM by Ambit Kinomescan binding assay relative to control
[7] = target: Serine/threonine-protein kinase ULK2 (Homo sapiens) (UniProt Q8IYT8); test: Inhibition of ULK2 (unknown origin) at 10 uM by Ambit Kinomescan binding assay
[8] = target: T2, Mitogen-activated protein kinase kinase kinase 6 (Homo sapiens) (UniProt O95382); test: Inhibition of MAP3K6 Lys1 labeling site harbouring IAIKEIPERDSR in human A-375 cells at 5 uM by KiNativ Profiling analysis relative to control; assay type: cell-based
T2 sequence (whole entry): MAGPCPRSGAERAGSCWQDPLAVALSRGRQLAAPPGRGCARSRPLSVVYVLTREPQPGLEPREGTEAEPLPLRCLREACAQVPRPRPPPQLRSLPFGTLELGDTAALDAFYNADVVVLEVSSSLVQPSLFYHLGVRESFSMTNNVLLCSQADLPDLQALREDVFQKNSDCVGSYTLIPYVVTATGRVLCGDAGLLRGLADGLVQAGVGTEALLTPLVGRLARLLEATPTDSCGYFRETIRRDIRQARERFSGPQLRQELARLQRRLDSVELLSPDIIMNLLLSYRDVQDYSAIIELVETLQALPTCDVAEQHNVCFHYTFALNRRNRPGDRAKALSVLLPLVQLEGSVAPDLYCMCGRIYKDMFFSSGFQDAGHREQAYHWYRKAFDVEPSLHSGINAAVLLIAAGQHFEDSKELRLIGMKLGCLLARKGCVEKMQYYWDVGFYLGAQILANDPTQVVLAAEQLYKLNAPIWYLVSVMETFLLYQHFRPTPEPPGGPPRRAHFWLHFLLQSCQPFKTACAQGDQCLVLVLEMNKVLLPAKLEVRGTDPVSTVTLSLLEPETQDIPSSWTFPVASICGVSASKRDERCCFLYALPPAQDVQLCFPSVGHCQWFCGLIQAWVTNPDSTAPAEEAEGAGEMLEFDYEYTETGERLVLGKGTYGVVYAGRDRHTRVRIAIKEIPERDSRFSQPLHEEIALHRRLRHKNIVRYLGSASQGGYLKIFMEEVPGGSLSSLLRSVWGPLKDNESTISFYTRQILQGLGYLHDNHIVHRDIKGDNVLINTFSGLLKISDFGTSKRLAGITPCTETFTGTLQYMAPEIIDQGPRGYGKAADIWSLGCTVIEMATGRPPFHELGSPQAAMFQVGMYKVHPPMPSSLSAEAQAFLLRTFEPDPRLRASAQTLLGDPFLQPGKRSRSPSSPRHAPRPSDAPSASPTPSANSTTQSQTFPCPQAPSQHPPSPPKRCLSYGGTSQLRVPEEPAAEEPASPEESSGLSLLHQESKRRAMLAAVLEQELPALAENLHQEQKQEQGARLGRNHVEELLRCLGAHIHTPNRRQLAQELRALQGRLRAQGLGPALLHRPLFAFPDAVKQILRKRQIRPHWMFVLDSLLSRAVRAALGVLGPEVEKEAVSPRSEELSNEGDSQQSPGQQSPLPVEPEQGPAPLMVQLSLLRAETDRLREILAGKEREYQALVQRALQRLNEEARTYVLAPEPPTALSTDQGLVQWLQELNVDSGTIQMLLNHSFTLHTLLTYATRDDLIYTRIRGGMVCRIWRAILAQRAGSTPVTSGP

[9] = Inhibition of Wnk1/2/4 ACT labeling site in human Huh-7 cells at 1 uM by KiNativ Profiling analysis relative to control; conditions: condition cancer
[10] = target: Angiopoietin-1 receptor (Homo sapiens) (UniProt Q02763); test: Inhibition of TIE2 (unknown origin) at 10 uM by Ambit Kinomescan binding assay relative to control; values are per cent of control
[11] = target: Serine/threonine-protein kinase TNNI3K (Homo sapiens) (UniProt Q59H18); test: Inhibition of TNNI3K (unknown origin) at 10 uM by Ambit Kinomescan binding assay relative to control; values are per cent of control
Serine/threonine-protein kinase TNNI3K (Homo sapiens), sequence (Q59H18 whole entry): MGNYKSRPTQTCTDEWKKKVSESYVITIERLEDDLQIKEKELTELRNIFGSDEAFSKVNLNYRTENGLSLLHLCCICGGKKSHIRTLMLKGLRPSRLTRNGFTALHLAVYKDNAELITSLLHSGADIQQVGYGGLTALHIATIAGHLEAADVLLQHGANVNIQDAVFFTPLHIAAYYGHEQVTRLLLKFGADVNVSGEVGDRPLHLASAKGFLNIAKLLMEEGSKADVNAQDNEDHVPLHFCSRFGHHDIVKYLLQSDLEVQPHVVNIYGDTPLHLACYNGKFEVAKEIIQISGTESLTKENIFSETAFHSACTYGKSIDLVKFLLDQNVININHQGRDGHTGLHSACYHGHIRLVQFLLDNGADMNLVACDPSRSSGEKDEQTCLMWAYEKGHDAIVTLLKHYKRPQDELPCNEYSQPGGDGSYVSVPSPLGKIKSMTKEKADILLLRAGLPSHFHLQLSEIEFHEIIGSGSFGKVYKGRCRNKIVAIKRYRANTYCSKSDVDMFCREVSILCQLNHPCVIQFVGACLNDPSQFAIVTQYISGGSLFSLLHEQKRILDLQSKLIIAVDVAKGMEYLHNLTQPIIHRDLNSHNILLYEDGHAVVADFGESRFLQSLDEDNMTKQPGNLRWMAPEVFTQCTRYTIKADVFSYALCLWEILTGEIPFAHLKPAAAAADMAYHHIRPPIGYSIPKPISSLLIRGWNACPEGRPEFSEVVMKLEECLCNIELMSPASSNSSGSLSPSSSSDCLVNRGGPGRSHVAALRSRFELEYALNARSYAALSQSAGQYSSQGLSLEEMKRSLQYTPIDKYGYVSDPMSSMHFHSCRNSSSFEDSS

Serine/threonine-protein kinase ULK2 (Homo sapiens), sequence (Q8IYT8 whole entry): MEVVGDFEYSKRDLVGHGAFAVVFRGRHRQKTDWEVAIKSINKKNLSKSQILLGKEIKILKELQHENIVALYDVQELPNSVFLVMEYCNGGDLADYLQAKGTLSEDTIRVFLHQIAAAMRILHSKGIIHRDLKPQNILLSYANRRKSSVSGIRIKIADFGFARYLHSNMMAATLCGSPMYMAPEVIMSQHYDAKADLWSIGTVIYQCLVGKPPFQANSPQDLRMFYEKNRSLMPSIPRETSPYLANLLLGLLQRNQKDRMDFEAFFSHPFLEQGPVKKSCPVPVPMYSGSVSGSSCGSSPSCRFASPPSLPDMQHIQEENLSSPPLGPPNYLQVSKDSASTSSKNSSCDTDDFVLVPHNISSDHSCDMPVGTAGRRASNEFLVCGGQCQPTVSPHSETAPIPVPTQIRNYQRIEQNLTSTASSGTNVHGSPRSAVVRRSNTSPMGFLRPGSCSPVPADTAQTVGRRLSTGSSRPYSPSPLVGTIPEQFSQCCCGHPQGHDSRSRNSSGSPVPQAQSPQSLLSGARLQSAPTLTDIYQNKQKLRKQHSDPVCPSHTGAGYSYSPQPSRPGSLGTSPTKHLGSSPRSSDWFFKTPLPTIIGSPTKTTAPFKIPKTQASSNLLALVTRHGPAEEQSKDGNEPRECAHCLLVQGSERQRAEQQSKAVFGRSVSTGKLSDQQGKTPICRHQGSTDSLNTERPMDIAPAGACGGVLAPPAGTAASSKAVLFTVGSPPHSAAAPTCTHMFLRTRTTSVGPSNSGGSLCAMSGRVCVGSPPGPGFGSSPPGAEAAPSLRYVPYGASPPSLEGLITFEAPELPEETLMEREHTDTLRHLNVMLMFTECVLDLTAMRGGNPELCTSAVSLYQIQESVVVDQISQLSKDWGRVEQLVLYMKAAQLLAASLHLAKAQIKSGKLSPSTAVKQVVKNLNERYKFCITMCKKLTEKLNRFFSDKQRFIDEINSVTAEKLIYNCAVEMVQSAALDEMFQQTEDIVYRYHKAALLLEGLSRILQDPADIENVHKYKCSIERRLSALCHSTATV
Tyrosine-protein kinase JAK1 (Homo sapiens), sequence (P23458 whole entry): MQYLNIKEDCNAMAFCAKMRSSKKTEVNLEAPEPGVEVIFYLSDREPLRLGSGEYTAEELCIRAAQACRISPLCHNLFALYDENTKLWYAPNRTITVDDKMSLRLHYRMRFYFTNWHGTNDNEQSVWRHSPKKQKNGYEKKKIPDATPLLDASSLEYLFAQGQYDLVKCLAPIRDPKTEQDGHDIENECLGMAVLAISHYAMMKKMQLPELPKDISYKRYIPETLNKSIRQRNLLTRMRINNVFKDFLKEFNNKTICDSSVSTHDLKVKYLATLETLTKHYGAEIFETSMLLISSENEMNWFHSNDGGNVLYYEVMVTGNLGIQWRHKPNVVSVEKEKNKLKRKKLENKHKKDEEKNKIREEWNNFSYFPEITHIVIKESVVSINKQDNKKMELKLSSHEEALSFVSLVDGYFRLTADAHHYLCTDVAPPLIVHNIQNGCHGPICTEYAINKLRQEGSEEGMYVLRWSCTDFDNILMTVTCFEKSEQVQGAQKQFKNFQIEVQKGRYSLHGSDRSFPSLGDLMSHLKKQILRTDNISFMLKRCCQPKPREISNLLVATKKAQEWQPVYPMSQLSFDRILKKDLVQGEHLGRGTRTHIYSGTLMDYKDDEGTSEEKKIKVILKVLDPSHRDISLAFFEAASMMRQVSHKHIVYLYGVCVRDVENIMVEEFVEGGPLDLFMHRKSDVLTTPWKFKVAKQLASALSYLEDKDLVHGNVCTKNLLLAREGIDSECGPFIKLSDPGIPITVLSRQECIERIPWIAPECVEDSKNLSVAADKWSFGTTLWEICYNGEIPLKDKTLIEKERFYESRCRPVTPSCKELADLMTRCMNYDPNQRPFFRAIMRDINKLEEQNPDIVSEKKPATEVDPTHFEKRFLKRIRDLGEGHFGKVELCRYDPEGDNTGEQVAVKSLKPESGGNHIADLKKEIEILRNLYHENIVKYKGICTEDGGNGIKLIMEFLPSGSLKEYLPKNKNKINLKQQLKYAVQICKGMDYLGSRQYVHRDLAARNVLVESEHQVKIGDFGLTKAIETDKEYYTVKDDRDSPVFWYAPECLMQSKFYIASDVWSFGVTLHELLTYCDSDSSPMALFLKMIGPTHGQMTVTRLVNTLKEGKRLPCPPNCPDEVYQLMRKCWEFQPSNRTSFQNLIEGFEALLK
Angiopoietin-1 receptor (Homo sapiens), sequence (Q02763 whole entry): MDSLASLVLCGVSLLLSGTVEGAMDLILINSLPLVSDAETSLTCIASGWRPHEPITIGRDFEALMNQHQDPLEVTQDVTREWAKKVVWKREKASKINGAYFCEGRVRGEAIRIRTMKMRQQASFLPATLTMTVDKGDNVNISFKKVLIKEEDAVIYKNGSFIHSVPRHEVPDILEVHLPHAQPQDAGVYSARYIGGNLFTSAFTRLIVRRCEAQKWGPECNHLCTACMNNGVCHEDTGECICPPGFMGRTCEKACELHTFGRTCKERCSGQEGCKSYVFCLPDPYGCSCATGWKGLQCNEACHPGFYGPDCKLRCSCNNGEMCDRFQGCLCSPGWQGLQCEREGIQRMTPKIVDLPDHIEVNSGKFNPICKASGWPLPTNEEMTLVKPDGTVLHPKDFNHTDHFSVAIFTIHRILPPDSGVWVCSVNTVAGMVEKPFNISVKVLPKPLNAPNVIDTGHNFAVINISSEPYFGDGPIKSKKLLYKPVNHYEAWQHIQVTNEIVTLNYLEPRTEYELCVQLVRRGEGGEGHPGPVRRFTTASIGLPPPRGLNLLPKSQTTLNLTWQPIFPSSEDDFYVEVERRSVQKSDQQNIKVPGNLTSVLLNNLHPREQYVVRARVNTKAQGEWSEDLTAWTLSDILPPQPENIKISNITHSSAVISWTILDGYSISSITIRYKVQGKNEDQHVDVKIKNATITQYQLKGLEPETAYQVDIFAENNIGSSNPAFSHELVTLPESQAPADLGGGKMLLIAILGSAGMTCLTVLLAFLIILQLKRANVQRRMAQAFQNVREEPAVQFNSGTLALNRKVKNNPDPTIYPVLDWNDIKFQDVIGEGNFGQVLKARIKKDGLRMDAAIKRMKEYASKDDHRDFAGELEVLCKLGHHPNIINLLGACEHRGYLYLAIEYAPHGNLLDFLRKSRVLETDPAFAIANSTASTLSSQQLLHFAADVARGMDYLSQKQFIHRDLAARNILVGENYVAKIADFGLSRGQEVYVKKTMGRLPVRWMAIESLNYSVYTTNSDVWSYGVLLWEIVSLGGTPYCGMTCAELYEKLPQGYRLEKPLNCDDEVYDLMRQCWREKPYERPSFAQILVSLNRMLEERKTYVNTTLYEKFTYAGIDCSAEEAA

## CNc1cc(Oc2cc(C(=O)Nc3cc(N4CCN(C)CC4)cc(C(F)(F)F)c3)ccc2C)ncn1
[1]
  inhibition: 0.7%
[2]
  inhibition: 16%

## CCN1CCN(Cc2ccc(NC(=O)c3ccc(C)c(/C=C/c4cnc5[nH]ccc5c4OC)c3)cc2C(F)(F)F)CC1
[3]
  inhibition: 7.3%
[4]
  inhibition: 12.3%

## CCN1CCN(Cc2ccc(NC(=O)c3ccc(C)c(Oc4ccnc5[nH]ccc45)c3)cc2C(F)(F)F)CC1
[5]
  inhibition: 0.7%
[6]
  inhibition: 11%
[7]
  inhibition: inactive
[8]
  inhibition: -3.2%
[9]
  inhibition at 1 µM: 7.6%
[10]
  residual activity: 0%
[11]
  residual activity: 4.8%
